Source: ChEMBL document CHEMBL3046853, “Synthesis, antimicrobial evaluation, ot-QSAR and mt-QSAR studies of 2-amino benzoic acid derivatives” (2012)
Calls of active or inactive are those of the source. The rule behind the calls is not given here.

Experiments:
[1] = test system: Aspergillus niger; experiment: Fungicidal activity against Aspergillus niger after 7 days by serial dilution technique; format: functional, organism-based
[2] = test system: Candida albicans; experiment: Fungicidal activity against Candida albicans; format: functional, organism-based
[3] = test system: Escherichia coli; experiment: Antibacterial activity against Escherichia coli after 24 hr by serial dilution technique; format: functional
[4] = test system: Aspergillus niger; experiment: Antifungal activity against Aspergillus niger after 7 days by serial dilution technique; format: functional
[5] = test system: Staphylococcus aureus; experiment: Antibacterial activity against Staphylococcus aureus after 24 hr by serial dilution technique; format: functional
[6] = test system: Bacillus subtilis; experiment: Antibacterial activity against Bacillus subtilis after 24 hr by serial dilution technique; format: functional
[7] = test system: Escherichia coli; experiment: Bactericidal activity against Escherichia coli; format: functional, organism-based
[8] = test system: Bacillus subtilis; experiment: Bactericidal activity against Bacillus subtilis; format: functional, organism-based
[9] = test system: Staphylococcus aureus; experiment: Bactericidal activity against Staphylococcus aureus; format: functional, organism-based
[10] = test system: Candida albicans; experiment: Antifungal activity against Candida albicans after 2 days by serial dilution technique; format: functional

SMILES | Activity [1] | Activity [2] | -logMIC [3] | -logMIC [4] | -logMIC [5] | -logMIC [6] | Activity [7] | Activity [8] | Activity [9] | -logMIC [10]
CCCCN(CCCC)C(=O)c1ccccc1N | Active | Active | 1.6 | 1.6 | 1.3 | 2.2 | Active | Active | Active | 1.3
Nc1ccccc1C(=O)N(c1ccccc1)c1ccccc1 | Active | Active | 1.66 | 1.66 | 1.36 | 2.27 | Active | Active | Active | 1.36
COC(=O)c1ccccc1N [METHYL ANTHRANILATE] | Active | Active | 1.69 | 1.08 | 1.08 | 1.99 | Active | Active | Active | 1.08
Nc1ccccc1C(=O)Nc1ccccc1F | Active | Active | 1.27 | 1.27 | 1.27 | 2.17 | Active | Active | Active | 1.27
Cc1ccccc1NC(=O)c1ccccc1N | Active | Active | 1.26 | 1.56 | 1.26 | 1.86 | Active | Active | Active | 1.56
CCCCNC(=O)c1ccccc1N | Active | Active | 1.19 | 1.2 | 1.2 | 1.49 | Active | Active | Active | 1.19
Cc1ccc(C)c(NC(=O)c2ccccc2N)c1 | Active | Active | 1.28 | 1.28 | 1.28 | 2.19 | Active | Active | Active | 1.3
Cc1ccc(NC(=O)c2ccccc2N)cc1 | Active | Active | 1.56 | 1.26 | 1.26 | 2.16 | Active | Active | Active | 1.26
